Data reported in patent US20070270448A1, “Methods of Using and Compositions Comprising a Jnk Inhibitor for the Treatment and Management of Asbestos-Related Diseases and Disorders” (CELGENE CORPORATION, priority 2003, published 2007).

Key:
[1] = test system: rat ventral mesencephalan neurons; experiment: [3H]Dopamine Cell Culture Assay (6-OHDA neurotoxicity); assay type: cell-based; details: 6-OHDA 30 μM, uptake 22 hrs after exposure
Protocol: Cultures of dopaminergic neurons were prepared according to a modification of the procedure described by Raymon and Leslie (J. Neurochem. 62:1015-1024, 1994). Time-mated pregnant rats were sacrificed on embyronic day 14-15 (crown rump length 11-12 mm) and the embryos removed by cesarean section. The ventral mesencephalon, containing the dopaminergic neurons, was dissected from each embryo. Tissue pieces from approximately 48 embryos were pooled and dissociated both enzymatically and mechanically. An aliquot from the resulting cell suspension was counted and the cells were plated in high glucose DMEM/F12 culture medium with 10% fetal bovine serum at a density of 1×10^5 cells/well of a Biocoat poly-D-lysine-coated 96-well plate. The day following plating was considered 1 day in vitro (DIV). Cells were maintained in a stable environment at 37° C., 95% humidity, and 5% CO2. A partial medium change was performed at 3 DIV. […]
[^3H]Dopamine uptake is used as a measure of the health and integrity of dopaminergic neurons in culture (Prochiantz et al., PNAS 76: 5387-5391, 1979). […] Briefly, cells treated with 6-OHDA in the presence and absence of 5-amino-anthra(9,1-cd)isothiazol-6-one were assessed in the uptake assay 22 hrs after exposure to 6-OHDA. […] Radioactivity was removed and the cultures were washed 3× with ice cold PBS. […]

[2] = Solubility in aqueous media; assay type: physicochemical
[3] = Brain-Blood Plasma Distribution In Vivo; parameters: species or system Sprague-Dawley rats; details: rat
Protocol: 5-Amino-anthra(9,1-cd)isothiazol-6-one was administered intravenously (10 mg/kg) into the veins of Sprague-Dawley rats. After 2 hr, blood samples were obtained from the animals and their vascular systems were perfused with approximately 100 mL of saline to rid their brains of blood. The brains were removed from the animals, weighed, and homogenized in a 50 mL conical tube containing 10 equivalents (w/v) of methanol/saline (1:1) using a Tissue Tearer (Fischer Scientific). The homogenized material was extracted by adding 600 μL of cold methanol to 250 μL of brain homogenate vortexed for 30 sec and subjected to centrifugation for 5 min. After centrifugation, 600 μL of the resulting supernatant was transferred to a clean tube and evaporated at room temperature under reduced pressure to provide a pellet. […] The brain homogenate analysis samples, plasma analysis samples, and standard analysis samples were analyzed and compared using HPLC by injecting 100 μL of a sample onto a 5 μm C-18 Luna column (4.6 mm×150 mm, commercially available from Phenomenex of Torrance, Calif.) and eluting at 1 mL/min with a linear gradient of 30% aqueous acetonitrile containing 0.1% trifluoroacetic acid to 90% aqueous acetonitrile containing 0.1% trifluoroacetic acid over 8 minutes and holding at 90% aqueous acetonitrile containing 0.1% trifluoroacetic acid for 3 min. with absorbance detection at 450 nm. […]

solubility in aqueous media [2]: limited solubility
brain-drug concentration ([3]; 10 mg/kg intravenously, 2 hr post-dose): approximately 65 nmole/g
Compound: Nc1ccc2snc3c2c1C(=O)c1ccccc1-3 [5-amino-anthra(9,1-cd)isothiazol-6-one]
protection of dopaminergic neurons ([3H]dopamine uptake) [1]: protects rat ventral mesencephalan neurons from the toxic effects of 6-OHDA
blood-brain barrier crossing ([3]; following intravenous administration): crosses the blood-brain barrier to a significant extent
